For one series, the system named is MiaPaCa-2 cells. The experiment in a line: MiaPaCa-2 cell proliferation, IncuCyte live-cell imaging (cell confluence). The series is classed as cell-based, human. Particulars: for antiproliferative effect compared with corresponding Mito-ATO analog: MiaPaCa-2 cells, controls lacking TPP+ (FIG. 9); for IC50: Homo sapiens. The source says: FIG. 1. […] (A) Chemical structures of ATO and Mito-ATO analogs. […] Cell proliferation was monitored in real-time with the continuous presence of indicated treatments until the end of each experiment. […] Dashed lines represent the fitting curves used to determine their IC50 values as indicated.
The IncuCyte Live-Cell Imaging system (IncuCyte Essen Bioscience Inc., Ann Arbor, MI) was used to monitor cell proliferation.^11-13 As shown in previous publications,^11,12 this imaging system is probe-free and noninvasive, and enables continuous monitoring of cell confluence over several days. The increase in the percentage of cell confluence was used as a surrogate marker of cell proliferation. In a 96-well plate, cells were plated at 1,000 cells per well in triplicates and left to adhere overnight.

The test system of series [1] is CD4+ T cells from SMARTA triple reporter mice. Nature of the series: In vitro differentiation of CD4+ T regulatory cells, flow cytometry. The series is classed as cell-based, mouse. Particulars: for Treg (FoxP3+CD25+) differentiation and/or survival: six days culture with TGFβ and IL-2, ATO, butyl-ATO, decyl-ATO up to 60 μM. The source says:
FIG. 5. In vitro differentiation of CD4^+ T regulatory cells under varying concentrations of Mito-ATOs and controls. After six days of culture, cells were stained for flow cytometry analysis. (left) Live/dead staining to assess the percentage of live CD4+ T cells within the lymphocyte gate. (middle) Teff cell function is shown as the frequency of IFNγ-GFP positive cells within the live CD4^+ T cells. (right) The percentage of Treg cells is shown as the frequency of FoxP3^+CD25^+ cells within the live CD4^+ T cells.
After six days, cells were stained to assess viability, phenotype, and function using the flow cytometry.
Mice. SMARTA triple reporter mice were generated in the following manner. First, IL-10 and IL-21 double-reporter mice^33 were generated by cross-breeding IL-21tRFP mice^34-35 with 10 BiT mice (kindly provided by Dr. Casey Weaver, University of Alabama at Birmingham). Double reporter mice were then crossed with GREAT (interferon-gamma reporter with endogenous polyA transcript) mice^36 from Jackson Laboratory (Stock No. 017581). These triple-reporter mice were then crossed with SMARTA mice^37 (kindly provided by Dr. Dorian McGavern, National Institutes of Health). Mice were bred and maintained in a closed breeding facility, and mouse handling conformed to the requirements of the Medical College of Wisconsin Institutional Animal Care and Use Committee guidelines. All experimental protocols were approved by the Medical College of Wisconsin Institutional Animal Care and Use Committee.
Cell culture. To differentiate CD4^+ T cells into a T regulatory cell phenotype, splenocytes from SMARTA triple-reporter mice were processed and the red blood cell lysed using an ACK (ammonium-chloride-potassium) lysis buffer. The cells were then activated with 1 μg/mL […] peptide (GenScript, Piscataway, NJ) and 5 ng/mL TGF-β1 (Shenandoah Biotechnology, Inc., Warwick, PA). […] Cells were cultured for six days and split once cells reached confluency; cells were replenished with IL-2 and compound accordingly. After six days in culture, cells were stained to assess the viability and phenotypic analysis via flow cytometry. LIVE/DEAD fixable violet or aqua dead cell stain (Invitrogen, Carlsbad, CA) was used to assess cell viability. The following antibodies were used for flow cytometry staining: PercP anti-mouse CD4 (clone: GK1.5; BioLegend, San Diego, CA), APC/Cy7 anti-mouse CD25 (clone: PC61; BioLegend), and PE anti-mouse FOXP3 (clone: FJK-16S; eBioscience, San Diego, CA). Flow cytometry data were acquired using a BD LSRII (BD Biosciences, CA) flow cytometer and analysed using FlowJo (Treestar, Inc., Ashland, OR).
For orientation: A flow cytometer gives signals particle by particle.

The next series addresses mitochondrial complex I (Homo sapiens, UniProt O75251+O75306+P03886). Nature of the series: Mitochondrial complex I-driven oxygen consumption rate (Seahorse XF96) in permeabilized MiaPaCa-2 cells. In kind it is cell-based. Particulars: 24 h treatment. The method, then:
FIG. 2. […] Relative complex I (1.5 mM malate, 10 mM pyruvate, 10 mM ADP)-driven OCR (left) and relative complex III (0.5 mM duroquinol, 10 mM ADP)-driven OCR (right) were monitored by XF-96 analyser. Either Rot (complex I inhibitor) or antimycin A (AA, complex III inhibitor) was acutely added and OCR assayed immediately. […] Dashed lines represent the fitting curves used for determination of the IC50 values.
(§1) Briefly, cells that were intact after treatments were immediately permeabilized using the Seahorse XF Plasma Membrane Permeabilizer (Agilent). The mitochondrial complex I-driven OCR was assayed in mannitol and sucrose buffer^31 containing 10 mM pyruvate and 1.5 mM malate (substrates for complex I) and 10 mM malonate (which inhibits complex II activities). The mitochondrial complex III-driven OCR was assayed in mannitol and sucrose buffer containing 0.5 mM duroquinol (substrate for complex III) and 1 μM Rot and 10 mM malonate (which inhibit both complex I and II activities). The mitochondrial complex-dependent oxygen consumption (calculated as Rot- or antimycin A-inhibitable OCR equals basal OCR less OCR after Rot or antimycin A injection) was plotted against concentrations to determine the IC50 values.

Series [2] deals with T1, mitochondrial complex III (Homo sapiens, UniProt P00156+P47985).
T1 construct: endogenous in cells; host or cells: MiaPaCa-2
The experiment in a line: Mitochondrial complex III-driven oxygen consumption rate (Seahorse XF96) in permeabilized MiaPaCa-2 cells. The series is classed as cell-based. Particulars: 24 h treatment. The method, then:
FIG. 2. Effects of Mito-ATO analogs on the oxygen consumption induced by mitochondrial complexes I and III. […] MiaPaCa-2 cells were treated with Mito-ATO for 24 h. Relative complex I (1.5 mM malate, 10 mM pyruvate, 10 mM ADP)-driven OCR (left) and relative complex III (0.5 mM duroquinol, 10 mM ADP)-driven OCR (right) were monitored by XF-96 analyser. Either Rot (complex I inhibitor) or antimycin A (AA, complex III inhibitor) was acutely added and OCR assayed immediately. […] Dashed lines represent the fitting curves used for determination of the IC50 values. (n.a., not applicable).
The mitochondrial complex activities were assessed by measuring the oxygen consumption rate (OCR) using the Seahorse technique.^6,11-4 MiaPaCa-2 cells were treated separately with Mito-ATO analogs at different concentrations for 24 h and OCR was measured.
as §1, with “Mitochondrial bioenergetic function was measured in real time using the Seahorse XF 96 Extracellular Flux Analyzer (Agilent, North Billerica, MA).^11-13,22 The OCR-based assessment of mitochondrial complex activities was carried out on acutely permeabilized cells in the presence of different mitochondrial substrates, i.e., pyruvate/malate, for complex I and duroquinol for complex III.^11,14,31,32 Rot, malonate, and antimycin A (Sigma-Aldrich, St. Louis, MO) were used as specific inhibitors of mitochondrial complexes I, II, and III, respectively. Briefly,” for “Briefly,”

The subject of another series is MiaPaCa-2 and A549 cells. Nature of the series: Cellular uptake by LC-MS/MS. The series is classed as cell-based, human. Particulars: Mito10-ATO 0.1 and 1 μM, ATO 1-10 μM; 1, 2, 4 and 24 h. The method, then:
The compounds were extracted according to the published experimental protocol.^11,12 Briefly, cells were washed twice with ice-cold DPBS (Dulbecco's Phosphate Buffered Saline) and harvested. The cell pellet was immediately frozen in liquid nitrogen and stored at −80° C. For the extraction, the pellet was homogenized in 200 μl DPBS (2 μl were taken for protein assay) and extracted twice with a dichloromethane:methanol (2:1) mixture. The organic layers were combined and dried using a SpeedVac concentrator (Thermo Fisher Scientific, Waltham MA). The dry residue was dissolved in ice-cold methanol and taken for LC-MS/MS analysis. LC-MS/MS analyses were performed using a Kinetex Phenyl-Hexyl column (50 mm×2.1 mm, 1.7 μm; Phenomenex, Torrance, CA) equilibrated with a water:acetonitrile mixture (4:1) containing 0.1% formic acid. Compounds were eluted by increasing the content of acetonitrile from 20% to 100% over 4 min and detected using the MRM (multiple reaction monitoring) mode.

Series [3] relates to cyt bc1. As to conditions: P. falciparum, Y265S mutations (so in the source); cited from earlier work.
Series [4] addresses cyt bc1 (Homo sapiens, UniProt P00156). As to conditions: mammalian cells; cited from earlier work.

Like-named read-outs stand apart in the source and are kept apart here.

Chain of mitochondrial complex I (O75306 34-463): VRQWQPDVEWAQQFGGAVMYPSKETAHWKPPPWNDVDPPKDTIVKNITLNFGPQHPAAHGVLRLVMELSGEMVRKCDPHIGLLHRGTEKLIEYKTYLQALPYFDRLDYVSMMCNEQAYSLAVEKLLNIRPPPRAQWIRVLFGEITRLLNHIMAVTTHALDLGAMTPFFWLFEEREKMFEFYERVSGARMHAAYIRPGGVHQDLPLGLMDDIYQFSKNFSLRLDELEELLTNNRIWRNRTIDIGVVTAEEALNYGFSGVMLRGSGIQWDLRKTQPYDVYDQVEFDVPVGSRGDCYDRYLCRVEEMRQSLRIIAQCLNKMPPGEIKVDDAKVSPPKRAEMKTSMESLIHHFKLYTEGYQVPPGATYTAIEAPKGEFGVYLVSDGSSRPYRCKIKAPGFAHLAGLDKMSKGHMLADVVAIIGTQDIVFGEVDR
Chain of mitochondrial complex I (O75251 39-213): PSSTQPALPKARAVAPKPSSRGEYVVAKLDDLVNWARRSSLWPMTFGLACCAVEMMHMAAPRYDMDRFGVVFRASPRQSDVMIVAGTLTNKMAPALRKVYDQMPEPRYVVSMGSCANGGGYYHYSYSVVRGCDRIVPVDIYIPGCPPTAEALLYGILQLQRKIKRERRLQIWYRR
Chain of mitochondrial complex I (P03886 whole entry): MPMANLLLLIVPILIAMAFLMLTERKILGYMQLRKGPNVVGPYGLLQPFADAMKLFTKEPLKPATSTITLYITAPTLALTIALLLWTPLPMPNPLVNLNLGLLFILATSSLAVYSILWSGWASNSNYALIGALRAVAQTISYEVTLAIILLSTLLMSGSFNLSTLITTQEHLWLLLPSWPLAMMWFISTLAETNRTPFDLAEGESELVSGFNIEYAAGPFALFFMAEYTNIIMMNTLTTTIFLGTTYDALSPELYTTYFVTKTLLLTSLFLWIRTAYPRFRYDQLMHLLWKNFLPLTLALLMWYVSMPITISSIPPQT
Chain of cyt bc1 (Homo sapiens, UniProt P00156) (P00156 whole entry): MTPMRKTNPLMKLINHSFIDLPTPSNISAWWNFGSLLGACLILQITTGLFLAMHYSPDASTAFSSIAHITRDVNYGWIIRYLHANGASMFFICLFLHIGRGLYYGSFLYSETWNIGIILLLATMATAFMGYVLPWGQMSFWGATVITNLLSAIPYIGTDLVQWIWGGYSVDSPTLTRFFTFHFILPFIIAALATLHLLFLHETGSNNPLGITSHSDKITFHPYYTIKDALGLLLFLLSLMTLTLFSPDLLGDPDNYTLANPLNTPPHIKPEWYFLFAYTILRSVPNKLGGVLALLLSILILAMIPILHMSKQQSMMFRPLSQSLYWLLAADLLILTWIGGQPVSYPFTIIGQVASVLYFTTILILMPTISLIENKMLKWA

On to `CCCCCCCCCCOC1=C([C@H]2CC[C@H](c3ccc(Cl)cc3)CC2)C(=O)c2ccccc2C1=O` [Decyl-ATO, reference compound], for which the “antiproliferative effect compared with corresponding Mito-ATO analog” value in the series on MiaPaCa-2 cells is “much less effective than their corresponding Mito-ATO analogs”. Moreover, the “Treg (FoxP3+CD25+) differentiation and/or survival” value in series [1] is on record as “did not inhibit Treg differentiation and/or survival”.

Take `CCCCOC1=C([C@H]2CC[C@H](c3ccc(Cl)cc3)CC2)C(=O)c2ccccc2C1=O` [Butyl-ATO, reference compound]: in the series on MiaPaCa-2 cells, the “antiproliferative effect compared with corresponding Mito-ATO analog” value is “much less effective than their corresponding Mito-ATO analogs”. The “Treg (FoxP3+CD25+) differentiation and/or survival” value in series [1] is on record as “did not inhibit Treg differentiation and/or survival”.

As to `O=C1C(OCCCCCCCCCCCC[P+](c2ccccc2)(c2ccccc2)c2ccccc2)=C([C@H]2CC[C@H](c3ccc(Cl)cc3)CC2)C(=O)c2ccccc21` [Mito12-ATO], the IC50 in the series with MiaPaCa-2 cells (MIA PaCa-2, MiaPaCa-2 pancreatic cancer cells, continuous treatment, read as control reaches 98% confluency, read-out: IC50, inhibition of cell proliferation (cell confluence)) worked out at 0.35 µM. In addition, the “inhibition of complex I-induced oxygen consumption” value at mitochondrial complex I is recorded as “inhibited only the complex I-induced oxygen consumption”. The “inhibition of complex III-induced oxygen consumption” value in series [2] was “did not inhibit”. The “Treg (FoxP3+CD25+) differentiation and/or survival” value in series [1] is recorded as “did not appreciably inhibit Treg differentiation”.

With `O=C1C(OCCCCCCCCCCCCCCCC[P+](c2ccccc2)(c2ccccc2)c2ccccc2)=C([C@H]2CC[C@H](c3ccc(Cl)cc3)CC2)C(=O)c2ccccc21` [Mito16-ATO], at mitochondrial complex I, the “inhibition of complex I-induced oxygen consumption” value was “inhibited only the complex I-induced oxygen consumption”. Moreover, in series [2], the “inhibition of complex III-induced oxygen consumption” value was “did not inhibit”.

As for `O=C1C(O)=C([C@H]2CC[C@H](c3ccc(Cl)cc3)CC2)C(=O)c2ccccc21` [ATO, trans-2-[4-(4-chlorophenyl)cyclohexyl]-3-hydroxy-1,4-naphthalene-dione], the IC50 in the series with MiaPaCa-2 cells (MIA PaCa-2, read-out: IC50, inhibition of cell proliferation (cell confluence)) came to 18 µM. Also, in the series with MiaPaCa-2 and A549 cells, the “cellular uptake / intracellular accumulation” value was “uptake was considerably lower and did not accumulate in cancer cells over a 24 h period”. The “Treg (FoxP3+CD25+) differentiation and/or survival” value in series [1] was “did not inhibit Treg differentiation and/or survival”. The “increase in IC50 for ATO caused by mutation at Q0 site” value in the series on cyt bc1 [3] is listed as ~9,000 fold. On cyt bc1 [4], the “IC50 for inhibition of cyt bc1” value is reported as “micromolar range”.

As to `O=C1C(OCCCC[P+](c2ccccc2)(c2ccccc2)c2ccccc2)=C([C@H]2CC[C@H](c3ccc(Cl)cc3)CC2)C(=O)c2ccccc21` [Mito4-ATO], the “inhibition of complex I-induced oxygen consumption” value against mitochondrial complex I was “potently inhibit”. Further, the “inhibition of complex III-induced oxygen consumption” value in series [2] is “potently inhibit”. Also, the “Treg (FoxP3+CD25+) differentiation and/or survival” value in series [1] is reported as “inhibited Foxp3^+ Treg differentiation and/or survival”. The “Teff cell IFNγ production” value in series [1] (six days culture, IFNγ-GFP positive cells within live CD4+ T cells) was “promoted Teff cell IFNγ production in a dose-dependent manner”.

These data come from patent publication US12594283B2 (The Medical College of Wisconsin, Inc., priority 2019, dated 2026).
